# Patent US11807644B2 (PMV Pharmaceuticals, Inc., priority 2020, dated 2023)
# Biological target: T1, recombinant His-tag Y220C p53 DBD protein (Homo sapiens, UniProt P04637, Y220C)
# T1 construct: recombinant His-tag Y220C p53 DBD protein (amino acids #˜94-312)
# Experiment: In vitro DNA binding activity assay (TR-FRET): binding of His-tag Y220C p53 DBD to biotin-labeled consensus DNA
# Format: biochemical
# Conditions: SC150 = concentration to increase DNA binding by […], His-tag Y220C p53 DBD, biotin-labeled consensus DNA
row,SMILES,Y220C SC150 (μM)
1,"CN1CC[C@@H](Nc2cccc3c2cc(-c2noc(CNC(=O)c4ccc(N5CCCC5)cc4)n2)n3CC(F)(F)F)[C@@H](F)C1 [Compound 243B, N-{[3-(4-{[(3S,4R)-3-fluoro-1-methylpiperidin-4-yl]amino}-1-(2,2,2-trifluoroethyl)-1H-indol-2-yl)-1,2,4-oxadiazol-5-yl]methyl}-4-(pyrrolidin-1-yl)benzamide]",* (* = 0 μM ≤ SC150 < 0.1 μM)
2,"CC(O)Cn1ccc(C(=O)NCc2nc(-c3cc4c(N[C@@H]5CCN(C)C[C@@H]5F)cccc4n3CC(F)(F)F)no2)c1 (stereo partly drawn) [Compound 244B, N-{[3-(4-{[(3S,4R)-3-fluoro-1-methylpiperidin-4-yl]amino}-1-(2,2,2-trifluoroethyl)-1H-indol-2-yl)-1,2,4-oxadiazol-5-yl]methyl}-1-(2-hydroxypropyl)-1H-pyrrole-3-carboxamide]",* (* = 0 μM ≤ SC150 < 0.1 μM)
3,"CN1CC[C@@H](Nc2cccc3c2cc(-c2noc(CNC(=O)[C@@H]4C[C@H]4CN4CCOCC4)n2)n3CC(F)(F)F)[C@@H](F)C1 [Compound 245B, (1R,2R)-N-{[3-(4-{[(3S,4R)-3-fluoro-1-methylpiperidin-4-yl]amino}-1-(2,2,2-trifluoroethyl)-1H-indol-2-yl)-1,2,4-oxadiazol-5-yl]methyl}-2-[(morpholin-4-yl)methyl]cyclopropane-1-carboxamide]",* (* = 0 μM ≤ SC150 < 0.1 μM)
4,"CC(C)NC[C@@H]1C[C@H]1C(=O)NCc1nc(-c2cc3c(N[C@@H]4CCN(C)C[C@@H]4F)cccc3n2CC(F)(F)F)no1 [Compound 246B, (1R,2R)-N-{[3-(4-{[(3S,4R)-3-fluoro-1-methylpiperidin-4-yl]amino}-1-(2,2,2-trifluoroethyl)-1H-indol-2-yl)-1,2,4-oxadiazol-5-yl]methyl}-2-{[(propan-2-yl)amino]methyl}cyclopropane-1-carboxamide]",* (* = 0 μM ≤ SC150 < 0.1 μM)
5,"CCCNC[C@@H]1C[C@H]1C(=O)NCc1nc(-c2cc3c(N[C@@H]4CCN(C)C[C@@H]4F)cccc3n2CC(F)(F)F)no1 [Compound 247B, (1R,2R)-N-{[3-(4-{[(3S,4R)-3-fluoro-1-methylpiperidin-4-yl]amino}-1-(2,2,2-trifluoroethyl)-1H-indol-2-yl)-1,2,4-oxadiazol-5-yl]methyl}-2-[(propylamino)methyl]cyclopro-pane-1-carboxamide]",* (* = 0 μM ≤ SC150 < 0.1 μM)

# Next, values leading:
row,Y220C SC150 (μM),SMILES
1,* (* = 0 μM ≤ SC150 < 0.1 μM),"CN1CC[C@@H](Nc2cccc3c2cc(-c2noc(CNC(=O)c4ccn(CCC(=O)O)c4)n2)n3CC(F)(F)F)[C@@H](F)C1 [Compound 248B, 3-[3-({[3-(4-{[(3S,4R)-3-fluoro-1-methylpiperidin-4-yl]amino}-1-(2,2,2-trifluoroethyl)-1H-indol-2-yl)-1,2,4-oxadiazol-5-yl]methyl}carbamoyl)-1H-pyrrol-1-yl]propanoic acid]"
2,* (* = 0 μM ≤ SC150 < 0.1 μM),"CN1CC[C@@H](Nc2cccc3c2cc(-c2noc(CNC(=O)c4ccn(CCO)c4)n2)n3CC(F)(F)F)[C@@H](F)C1 [Compound 249B, N-{[3-(4-{[(3S,4R)-3-fluoro-1-methylpiperidin-4-yl]amino}-1-(2,2,2-trifluoroethyl)-1H-indol-2-yl)-1,2,4-oxadiazol-5-yl]methyl}-1-(2-hydroxyethyl)-1H-pyrrole-3-carboxamide]"
3,* (* = 0 μM ≤ SC150 < 0.1 μM),"CN1CC[C@@H](Nc2cccc3c2cc(-c2noc(CNC(=O)c4ccn(CC(F)F)c4)n2)n3CC(F)(F)F)[C@@H](F)C1 [Compound 250B, 1-(2,2-difluoroethyl)-N-{[3-(4-{[(3S,4R)-3-fluoro-1-methylpiperidin-4-yl]amino}-1-(2,2,2-trifluoroethyl)-1H-indol-2-yl)-1,2,4-oxadiazol-5-yl]methyl}-1H-pyrrole-3-carboxamide]"
